According to paper PMC7738871, “Covalent modification of Keap1 at Cys77 and Cys434 by pubescenoside a suppresses oxidative stress-induced NLRP3 inflammasome activation in myocardial ischemia-reperfusion injury” (Theranostics, 2021):

What was measured:
[1] = biological target: T1, Keap1 C23S (Homo sapiens, UniProt Q14145, C23S); test: ITC titration of PBA with Keap1-C23S; type: binding; conditions: 25 ℃
T1 construct: His (N); made in house; host or cells: E. coli BL21 (DE3)
Experimental: (§1) The Keap1 was amplified by PCR using a human cDNA library, and was subcloned into the vector pET28-TEV, which contained one tobacco etch virus (TEV) protease cleavage site at the upstream multiple cloning site. The protein was expressed in E. coli BL21 (DE3) cells and incubated at 37 °C until the OD600 value reached 0.6, using 0.2 mM isopropyl β-D-1-thiogalactopyranoside (IPTG) overnight induction at 18 °C. The cells were isolated by centrifugation, resuspended in ice-cold lysis buffer and lysed by cryogenic overpressure cell breaker at 1,200 psi. The lysates were centrifuged for 60 min at 14,000 rpm to obtain the supernatant. Gravity flow purification of Keap1 protein was obtained at room temperature using 1 mL of Ni-NTA and eluted in buffer containing 250 mM imidazole, followed by 1 mL of HiTrap QHP for the second step purification. The final protein was purified and validated by Superdex 200 10/300GL resin.
(§2) The mutant plasmid DNA was obtained by PCR. The PCR products were cleaved by DpnI restriction enzymes. The restriction endonuclease-cleaved mixture was subsequently transformed into E. coli DH5α. Colonies were evaluated by colony PCR and sequenced. The mutant plasmid was transformed into E. coli BL21 (DE3) after successful sequencing. The steps for expression and purification of all recombinants were described above.
(§3) Isothermal calorimetry (ITC) titration experiments were performed at 25 °C. WT Keap1, Keap1 mutants and PBA were dissolved in binding buffer (40 mM Tris-HCl pH 8.0, 250 mM NaCl). In a typical experiment, 60 μL of PBA (1 mM) was injected 19 times at 2-min intervals from a stirring syringe into the sample cell containing 300 μL of WT protein or mutants (30 μM). The first injection was 0.4 μL of PBA, and the subsequent 18 injections were 2 μL each time. The site-binding models were determined by using MicroCal Origin software.

[2] = biological target: T2, Keap1 C77S (Homo sapiens, UniProt Q14145, C77S); test: ITC titration of PBA with Keap1-C77S; type: binding; conditions: 25 ℃
T2 construct: His (N); made in house; host or cells: E. coli BL21 (DE3)
T2 sequence (Q14145 whole entry C77S): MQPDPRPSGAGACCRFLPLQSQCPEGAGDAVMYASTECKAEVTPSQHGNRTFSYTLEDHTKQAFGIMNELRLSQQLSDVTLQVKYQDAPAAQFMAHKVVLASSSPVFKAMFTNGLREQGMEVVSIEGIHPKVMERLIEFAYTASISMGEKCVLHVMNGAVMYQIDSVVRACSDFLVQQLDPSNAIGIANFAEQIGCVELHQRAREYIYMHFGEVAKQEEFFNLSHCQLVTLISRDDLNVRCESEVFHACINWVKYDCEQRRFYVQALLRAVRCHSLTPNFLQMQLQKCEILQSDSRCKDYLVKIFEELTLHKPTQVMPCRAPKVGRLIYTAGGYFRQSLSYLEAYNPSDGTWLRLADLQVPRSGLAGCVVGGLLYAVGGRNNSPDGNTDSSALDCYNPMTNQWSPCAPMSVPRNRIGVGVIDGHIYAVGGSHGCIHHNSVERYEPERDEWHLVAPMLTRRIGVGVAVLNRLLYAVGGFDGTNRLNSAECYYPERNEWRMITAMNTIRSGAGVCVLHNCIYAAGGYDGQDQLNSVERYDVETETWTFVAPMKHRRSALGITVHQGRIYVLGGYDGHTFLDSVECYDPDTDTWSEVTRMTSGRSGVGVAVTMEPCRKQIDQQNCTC
Experimental: as §1, §2, §3

[3] = test system: LAD-induced myocardial ischemia-reperfusion model in mice; test: LAD-induced myocardial ischemia-reperfusion model; type: in vivo, mouse
Experimental: The experimental procedures and protocols were approved by the Committee on Ethical USE of Animals of International Institute for Translational Chinese Medicine, Guangzhou University of Chinese Medicine (No. IITCM-20180115). Adult male C57BL/6 mice were purchased from the Laboratory Animal Center, Sun Yat-Sen University (Guangzhou, Guangdong, China), and Nrf2 knockout mice were obtained from Riken. Adult male C57BL/6 or Nrf2 knockout mice were treated with 30 mg/kg PBA or an equal volume of vehicle 15 min prior to reperfusion. Mice were divided into 6 groups: (1) Wild-type sham (n = 10): C57BL/6 mice received vehicle, as the sham group; (2) Wild-type AMI/R group (n = 10): C57BL/6 mice received vehicle (i.p.) 15 min before reperfusion; (3) Wild-type AMI/R plus PBA group (n = 10): C57BL/6 mice received 30 mg/kg PBA (i.p.) 15 min before reperfusion; (4) Nrf2 knockout sham (n = 8) : Nrf2 knockout mice received vehicle (i.p.), as in the sham group; (5) Nrf2 knockout AMI/R group (n = 8): Nrf2 knockout mice received vehicle (i.p.) 15 min before reperfusion; (6) Nrf2 knockout AMI/R plus PBA group (n = 8): Nrf2 knockout mice received 30 mg/kg PBA (i.p.) 15 min before reperfusion. PBA was dissolved in 0.9% NaCl buffer containing 2% EtOH. The vehicle was 0.9% NaCl buffer containing 2% EtOH.
The C57BL/6 mice or Nrf2 knockout mice underwent myocardial ischemia-reperfusion injury as described previously. In brief, mice were anaesthetized by i.p. injection of sodium pentobarbital at a dose of 50 mg/kg and ventilated under a pressure-control VentStar R415 ventilator (RWD Life Science Inc., Shenzhen, China). Following thoracotomy between the 3rd and 4th intercostal spaces, the mouse heart was exposed. The LAD was ligated with an 8-0 silk suture and the PE10 tube for 30 min. PBA and vehicle were i.p. injected 15 min prior to reperfusion. After 30 min of ischemia, the suture with PE10 tube was removed. At the end of 24 h of reperfusion, the LAD was relegated, and 1% Evans blue dye was injected to measure the area at risk (AAR). The hearts of the mice were collected, and frozen at -80 °C for 10 min and cut into 5 slices. The slices were incubated with 1% 2,3,5-triphenyltetrazolium chloride (TTC, Santa Cruz, USA) at 37 °C for 15 min and fixed with 4% paraformaldehyde overnight. The slices were captured and the areas of AAR and IA were quantified by using ImageJ software.
Hemodynamic measurements were performed using a PV-loop catheter (Transonic Systems Inc., Ithaca, NY, USA). Hemodynamic measurements were analysed using Ponemah 7700 modules software according to a standardized protocol. The maximum rate of rise of left ventricular pressure increase (+dp/dtmax) and the maximum rate of rise of left ventricular pressure decrease (-dp/dtmax) were calculated for all mice.
Echocardiography was performed on mice at the end of reperfusion. In brief, mice were re-anesthetized with isoflurane and subjected to the Vevo 2100 System (VisualSonics Inc., Toronto, Canada). M-mode was used to obtain LV dimensions in diastole and systole according to the standard procedures and calculations. Left ventricular end systolic diameter (LVESD), left ventricular end diastolic diameter (LVEDD), left ventricular end systolic volume (LVSV) and left ventricular end diastolic volume (LVDV) were measured. And the left ventricular ejection fraction (LVEF) and left ventricular fractional shortening (LVFS) values were calculated using Vevostrain software as parameters indicating cardiac function.

[4] = 30 mg/kg i.p., 24 hours after AMI/R

T1 sequence (Q14145 whole entry C23S): as the sequence (Q14145 whole entry C77S) above, with C23S, S77C counted along it

Kd [1]: 9.78 µM
T△S [1]: 3.22 ± 0.00 kcal/mol
△G [1]: -6.84 ± 0.00 kcal/mol
△H [1]: -3.62 ± 0.241 kcal/mol
Kd [2]: 19.5 µM
T△S [2]: 0.78 ± 0.00 kcal/mol
△G [2]: -6.43 ± 0.00 kcal/mol
△H [2]: -5.65 ± 0.866 kcal/mol
SMILES: C=C(COC(=O)C=Cc1ccc(O)c(O)c1)C(O)COC1OC(CO)C(O)C(O)C1O (stereo not shown) [PBA, pubescenoside A]
myofibrillar structure (H&E staining) ([3]; 30 mg/kg): preserved myofibrillar structure
recruitment of inflammatory cells (H&E staining) ([3]; 30 mg/kg): reduced the recruitment of inflammatory cells
cardiac infarct size ([3]; 30 mg/kg i.p. 15 min before reperfusion, 30 min ischemia, 24 h reperfusion): significantly reduce
level of CK-MB ([3]; 30 mg/kg i.p., 30 min ischemia, 24 h reperfusion, blood, ELISA): significantly reduce
+dp/dtmax [3, 4]: increasing
-dp/dtmax [3, 4]: increasing
LVEF [3, 4]: increasing
LVESD [3, 4]: decreasing
LVFS [3, 4]: increasing
LVSV [3, 4]: decreasing
NLRP3 inflammasome activation in heart tissue ([3]; AMI/R-injured mice, western blot): attenuated
